PubChem BioAssay AID1963829 (Molecular Pharmacology Branch, DTP, NCI, 2024)

Test system: 935938-334-R-J1-PDC complex spheroid viability
Experiment: Anticancer human tumor 935938-334-R-J1-PDC patient-derived small intestine adenocarcinoma cell line growth inhibition [POLQ]
Details: for IC50: curve of first compound; for viability, T/C: stronger effect = lower value
Method in brief: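 Growth inhibition in 3D: complex spheroids (tumor PDC, HUVEC, MSC) treated with POLQ inhibitor combinations; where Cmax unknown, highest tested concentration 10 microM, except SN-38 at 1 microM.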

[1] = second compound 0.0316 µM, first compound 0.0316 µM
[2] = second compound 0.0316 µM, first compound 0.1 µM
[3] = second compound 0.0316 µM, first compound 0.316 µM
[4] = second compound 0.0316 µM, first compound 1 µM
[5] = second compound 0.0316 µM, first compound 3.16 µM
[6] = second compound 0.0316 µM, first compound 10 µM
[7] = second compound 0.1 µM, first compound 0.0316 µM
[8] = second compound 0.1 µM, first compound 0.1 µM
[9] = second compound 0.1 µM, first compound 0.316 µM
[10] = second compound 0.1 µM, first compound 1 µM
[11] = second compound 0.1 µM, first compound 3.16 µM
[12] = second compound 0.1 µM, first compound 10 µM
[13] = second compound 0.316 µM, first compound 0.0316 µM
[14] = second compound 0.316 µM, first compound 0.1 µM
[15] = second compound 0.316 µM, first compound 0.316 µM
[16] = second compound 0.316 µM, first compound 1 µM
[17] = second compound 0.316 µM, first compound 3.16 µM
[18] = second compound 0.316 µM, first compound 10 µM
[19] = second compound 1 µM, first compound 0.0316 µM
[20] = second compound 1 µM, first compound 0.1 µM
[21] = second compound 1 µM, first compound 0.316 µM
[22] = second compound 1 µM, first compound 1 µM
[23] = second compound 1 µM, first compound 3.16 µM
[24] = second compound 1 µM, first compound 10 µM
[25] = second compound 3.16 µM, first compound 0.0316 µM
[26] = second compound 3.16 µM, first compound 0.1 µM
[27] = second compound 3.16 µM, first compound 0.316 µM
[28] = second compound 3.16 µM, first compound 1 µM
[29] = second compound 3.16 µM, first compound 3.16 µM
[30] = second compound 3.16 µM, first compound 10 µM
[31] = second compound 10 µM, first compound 0.0316 µM
[32] = second compound 10 µM, first compound 0.1 µM
[33] = second compound 10 µM, first compound 0.316 µM
[34] = second compound 10 µM, first compound 1 µM
[35] = second compound 10 µM, first compound 3.16 µM
[36] = second compound 10 µM, first compound 10 µM
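Also: spheroids exposed to drugs for seven days before viability read.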
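For viability, T/C in this document: 100% = DMSO vehicle control wells.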

Nc1ccn(C2OC(CO)C(O)C2(F)F)c(=O)n1 (stereo not drawn) + Nc1ccc(C#CCN(C(=O)Cc2ncc(C(F)(F)F)cc2C(F)(F)F)c2ccc(F)cc2)nn1
IC50 (second compound 0.0316 µM): < 31.6 nM | IC50 (second compound 0.1 µM): < 31.6 nM | IC50 (second compound 0.316 µM): < 31.6 nM | IC50 (second compound 1 µM): < 31.6 nM | IC50 (second compound 3.16 µM): < 31.6 nM | IC50 (second compound 10 µM): < 31.6 nM | viability, T/C [1]: 35.4% | viability, T/C [2]: 27.6% | viability, T/C [3]: 17.3% | viability, T/C [4]: 17.3% | viability, T/C [5]: 18.2% | viability, T/C [6]: 16.8% | viability, T/C [7]: 33.2% | viability, T/C [8]: 24.4% | viability, T/C [9]: 16.5% | viability, T/C [10]: 17.5% | viability, T/C [11]: 19.1% | viability, T/C [12]: 13.9% | viability, T/C [13]: 31.1% | viability, T/C [14]: 24.8% | viability, T/C [15]: 23.2% | viability, T/C [16]: 19.6% | viability, T/C [17]: 17.1% | viability, T/C [18]: 14.4% | viability, T/C [19]: 33.2% | viability, T/C [20]: 23.4% | viability, T/C [21]: 18.2% | viability, T/C [22]: 19.1% | viability, T/C [23]: 16.6% | viability, T/C [24]: 15.3% | viability, T/C [25]: 30.2% | viability, T/C [26]: 25.6% | viability, T/C [27]: 20.2% | viability, T/C [28]: 21.2% | viability, T/C [29]: 17.5% | viability, T/C [30]: 17.1% | viability, T/C [31]: 42.9% | viability, T/C [32]: 31.6% | viability, T/C [33]: 30.1% | viability, T/C [34]: 20.6% | viability, T/C [35]: 19.8% | viability, T/C [36]: 19.2%

CC1COCCN1c1cc(C2(O)CC3CCC(C2)O3)c2cnn(-c3ccn[nH]3)c2n1 (stereo not drawn) + COC1C(OC(N)=O)C(O)C(Oc2ccc3c(O)c(NC(=O)c4ccc(O)c(CC=C(C)C)c4)c(=O)oc3c2C)OC1(C)C
IC50 (second compound 0.0316 µM): 244 nM | IC50 (second compound 0.1 µM): 207 nM | IC50 (second compound 0.316 µM): 168 nM | IC50 (second compound 1 µM): 216 nM | IC50 (second compound 3.16 µM): 177 nM | IC50 (second compound 10 µM): 97 nM | viability, T/C [1]: 82.5% | viability, T/C [2]: 71.2% | viability, T/C [3]: 43.8% | viability, T/C [4]: 20.1% | viability, T/C [5]: 14.7% | viability, T/C [6]: 8.68% | viability, T/C [7]: 114% | viability, T/C [8]: 71.9% | viability, T/C [9]: 36.4% | viability, T/C [10]: 21.1% | viability, T/C [11]: 18.7% | viability, T/C [12]: 9.26% | viability, T/C [13]: 75.7% | viability, T/C [14]: 65.8% | viability, T/C [15]: 30.4% | viability, T/C [16]: 21.5% | viability, T/C [17]: 16.8% | viability, T/C [18]: 11.5% | viability, T/C [19]: 79.1% | viability, T/C [20]: 78.6% | viability, T/C [21]: 35.8% | viability, T/C [22]: 23.2% | viability, T/C [23]: 13.5% | viability, T/C [24]: 11.3% | viability, T/C [25]: 102% | viability, T/C [26]: 63.3% | viability, T/C [27]: 36.5% | viability, T/C [28]: 20.9% | viability, T/C [29]: 15.1% | viability, T/C [30]: 10.2% | viability, T/C [31]: 88.2% | viability, T/C [32]: 48.9% | viability, T/C [33]: 27.9% | viability, T/C [34]: 16.6% | viability, T/C [35]: 15.7% | viability, T/C [36]: 8.92%

C=CCn1c(=O)c2cnc(Nc3ccc(N4CCN(C)CC4)cc3)nc2n1-c1cccc(C(C)(C)O)n1 + Nc1ccc(C#CCN(C(=O)Cc2ncc(C(F)(F)F)cc2C(F)(F)F)c2ccc(F)cc2)nn1
IC50 (second compound 0.0316 µM): 534 nM | IC50 (second compound 0.1 µM): 661 nM | IC50 (second compound 0.316 µM): 592 nM | IC50 (second compound 1 µM): 273 nM | IC50 (second compound 3.16 µM): 601 nM | IC50 (second compound 10 µM): 478 nM | viability, T/C (second compound 0.0316 µM, first compound 0.00316 µM): 90.4% | viability, T/C (second compound 0.0316 µM, first compound 0.01 µM): 93.5% | viability, T/C [1]: 73.8% | viability, T/C [2]: 79.8% | viability, T/C [3]: 77.2% | viability, T/C [4]: 19.1% | viability, T/C (second compound 0.1 µM, first compound 0.00316 µM): 76.5% | viability, T/C (second compound 0.1 µM, first compound 0.01 µM): 81.3% | viability, T/C [7]: 92.6% | viability, T/C [8]: 96.6% | viability, T/C [9]: 89.5% | viability, T/C [10]: 29.1% | viability, T/C (second compound 0.316 µM, first compound 0.00316 µM): 85.8% | viability, T/C (second compound 0.316 µM, first compound 0.01 µM): 70.4% | viability, T/C [13]: 72.1% | viability, T/C [14]: 99.6% | viability, T/C [15]: 77.1% | viability, T/C [16]: 26.2% | viability, T/C (second compound 1 µM, first compound 0.00316 µM): 80% | viability, T/C (second compound 1 µM, first compound 0.01 µM): 105% | viability, T/C [19]: 82.3% | viability, T/C [20]: 107% | viability, T/C [21]: 43.6% | viability, T/C [22]: 25.4% | viability, T/C (second compound 3.16 µM, first compound 0.00316 µM): 95.9% | viability, T/C (second compound 3.16 µM, first compound 0.01 µM): 79.3% | viability, T/C [25]: 61.8% | viability, T/C [26]: 85.4% | viability, T/C [27]: 88.7% | viability, T/C [28]: 24.3% | viability, T/C (second compound 10 µM, first compound 0.00316 µM): 96.7% | viability, T/C (second compound 10 µM, first compound 0.01 µM): 82.6% | viability, T/C [31]: 118% | viability, T/C [32]: 81.3% | viability, T/C [33]: 65.4% | viability, T/C [34]: 25.2%

COc1cc2cc(C(=O)CCC(=O)O)sc2cc1OC + COC1C(OC(N)=O)C(O)C(Oc2ccc3c(O)c(NC(=O)c4ccc(O)c(CC=C(C)C)c4)c(=O)oc3c2C)OC1(C)C
IC50 (second compound 0.0316 µM): > 10000 nM | IC50 (second compound 0.1 µM): > 10000 nM | IC50 (second compound 0.316 µM): > 10000 nM | IC50 (second compound 1 µM): > 10000 nM | IC50 (second compound 3.16 µM): > 10000 nM | IC50 (second compound 10 µM): > 10000 nM | viability, T/C [1]: 101% | viability, T/C [2]: 98.3% | viability, T/C [3]: 113% | viability, T/C [4]: 83.7% | viability, T/C [5]: 108% | viability, T/C [6]: 110% | viability, T/C [7]: 103% | viability, T/C [8]: 118% | viability, T/C [9]: 97.9% | viability, T/C [10]: 110% | viability, T/C [11]: 92.4% | viability, T/C [12]: 135% | viability, T/C [13]: 128% | viability, T/C [14]: 131% | viability, T/C [15]: 109% | viability, T/C [16]: 98% | viability, T/C [17]: 112% | viability, T/C [18]: 105% | viability, T/C [19]: 99.2% | viability, T/C [20]: 98.3% | viability, T/C [21]: 90.8% | viability, T/C [22]: 112% | viability, T/C [23]: 108% | viability, T/C [24]: 83.1% | viability, T/C [25]: 106% | viability, T/C [26]: 96.1% | viability, T/C [27]: 96.9% | viability, T/C [28]: 101% | viability, T/C [29]: 109% | viability, T/C [30]: 95.4% | viability, T/C [31]: 171% | viability, T/C [32]: 118% | viability, T/C [33]: 98% | viability, T/C [34]: 101% | viability, T/C [35]: 80.8% | viability, T/C [36]: 109%
